Columns and labels:
[1] = test system: human corneal epithelial (HCE) cells; assay: Scraping wound closure assay on human corneal epithelial cell monolayer; format: cell-based; settings: 24 h post scraping
Method: Brief description of the protocol: human corneal epithelial (HCE) cells (100 000 cells per well) were plated in 6-well plates and cultured until confluence. At confluence the cell monolayer was scraped with a yellow tip, the medium removed and incubated for 30 min with 1/10 dilutions of the different test articles (PBS (phosphate buffer solution), Xalatan® (aqueous solution of latanoprost at 0.005%), 0.02% BAK (benzalkonium chloride aqueous solution), and the Latanoprost Emulsion of the invention (with 0.005% latanoprost). Following the treatment, test article dilutions were removed and replaced by fresh culture medium. The scraping closure was assessed 2 and 24 h post treatment. Immunohistology of proliferation marker (Ki67) was also performed on cells cultured for 24 h post scraping.

Sprague-Dawley rats = assay: Corneal scraping (deshepithelization) wound healing model in the rat, repeated instillations; format: in vivo
Method: Brief description of the protocol: 16 male Sprague-Dawley rats weighting 100 to 125 g were randomly assigned to 4 groups (4 rats per group (Gp)): Gp1, Phosphate buffer solution (PBS); Gp2, 0.02% benzalkonium chloride (BAK); Gp3, Xalatan®; Gp4, Latanoprost Emulsion. Following general and local anesthesia with ketamine/xylazine and topical Oxybucaïne, respectively, the upper part of the right eye cornea of each rat was scraped with a surgical scalpel following an application of 50 μl of 50% ethanol solution. The upper corneal and limbal epithelia were removed (at day D0). One drop of Tobrex was instilled immediately after the scraping. 2 and 5 hours post scraping one drop of the different test articles were applied onto the cornea of the right eye. These latter instillations were repeated every day for 4 days, and corneal evaluation with an in vivo confocal microscope (IVCM-HRT) was performed on day 4 after the last instillation. At the end of the experimental procedure (the total duration of the treatment is 5 days; from day D0 to D4), the animals were sacrificed and the eyes harvested to characterize the histological organisation of the treated cornea.

## benzalkonium chloride [0.02% BAK solution]
[1]; 1/10 dilutions (FIGS. 7 & 8)
  closure of the cleft (scraping closure), cell survival and migration: no or only little closure
[1]; 30 min incubation with 1/10 dilutions (FIG. 9)
  % of wound closure: 8%
Sprague-Dawley rats; day 4 after scraping, repeated instillations, right eye (FIG. 1)
  corneal opacity / scarification of the cornea: scarification of the cornea was dramatic
Sprague-Dawley rats; rat, in vivo
  in vivo confocal microscopy (IVCM) of superficial epithelium: scar tissue / hypereflectivity: scar tissue (hypereflectivity)
